SMILES strings stand for the structures.

Experimental findings from patent US20030134779A1, “Method and composition for treatment and/or prevention of antibiotic-resistant microorganism infections” (priority 2002, published 2003) are described below.

Assay [1] deals with β-lactamase activity of S. aureus SHY97-4320. The experiment in a line: β-lactamase activity, nitrocefin assay, human LF. The class given is cell-based, Staphylococcus aureus. The following applies: 8-μg/ml penicillin G alone. The method, then: Penicillin G was purchased from Novopharm Limited (Toronto, Ontario, Canada). […] Antibiotic stock solutions were always freshly prepared and diluted to the desired concentration in Mueller Hinton broth (MHB) medium (Difco Laboratories, Detroit, MI). β-Lactamase activity was measured using a quantitative spectrophotometric assay with the chromogenic cephalosporin nitrocefin. Bacterial cells were first exposed to penicillin and/or LF during 4 and 22-h in broth. At each time point, the number of cfu/ml were determined and cells aliquots were centrifuged.
The pellets were suspended in 10 mM HEPES buffer (pH 7.4) to an OD415 nm of 0.4 for PC-1 and 4 for strain SHY97-4320. Nitrocefin (100 μM) was added to 20 μl of cells in a final volume of 200 μl. Hydrolysis was measured at 486 nm on a Spectra Max 250 Microplate Spectrophotometer System of Molecular Device (Fisher Scientific, Ottawa, Canada). β-Lactamase activity was expressed as ΔO.D.486 nm/min and corrected for bacterial OD.

The subject of the next assay is S. aureus SHY97-4320. The experiment in a line: SDS-PAGE protein profile of whole cells. The class given is cell-based, Staphylococcus aureus. To be noted: compound alone: 8 μg/ml penicillin G or 1 mg/ml LF; 4-h of growth. The method, then:
Staphylococcus aureus SHY97-4320 cells growth in MHB containing test compounds were suspended in electrophoresis sample buffer containing 2% sodium dodecyl sulfate (SDS) and 5% 2-mercaptoethanol to a final concentration of 0.1 g per ml. The samples were heated to 100° C. for 5 min before being loaded for electrophoresis on a discontinuous 0.1% SDS-polyacrylamide gel (SDS PAGE) with 6% polyacrylamide stacking gel and 10 or 12% polyacrylamide running gel. Gels were run on a Mini-Protean® II apparatus (Bio Rad laboratories, Richmond, Calif.). Protein profiles were visualised by staining with coomassie brilliant blue R-250 or by silver staining.

The test system of a further assay is S. aureus PC-1. The assay is described as follows: Cell morphology by transmission electron microscopy. The class given is cell-based, Staphylococcus aureus. The following applies: penicillin G 8 μg/ml alone; 4-h. The method, then:
Bacterial cells were grown overnight on MHA or MHB containing sub-MICs of penicillin G with or without LF or LFC. Microorganisms were prepared for transmission electron microscopy by fixation with glutaraldehyde followed by ferritin labelling. This method allows good- preservation of capsular material. Briefly, bacterial cells grown in the presence or absence of antibiotics were fixed in cacodylate buffer (0.1 M, pH 7.0) containing 5% (v/v) glutaraldehyde, for 2 h at 20° C. Fixed microorganims were suspended in cacodylate buffer and allowed to react with the polycationic ferritin (Sigma Chemicals, St-Louis, Mo.; final concentration 1.0 mg/ml) for 30 min at 20° C. The reaction was slowed down by 10-fold dilution with buffer, and the microorganisms were centrifuged and washed three times in cacodylate buffer. Bacterial cells were then immobilized in 4% (w/v) agar, washed 5 times in cacodylate buffer and post-fixed with 2% (w/v) osmium tetroxide for 2 h. Washings were repeated as above, and the samples dehydrated in a graded series of acetone washes. Samples were then washed twice in propylene oxide and embedded in Spurr low-viscosity resin. Thin sections were post-stained with uranyl acetate and lead citrate and examined with an electron microscope (Philips 201) at an accelerating voltage of 60 kV.
Bacterial cells of PC-1 (a constitutively high producing β-lactamase strain) were grown overnight in MHB containing 8 μg/ml of penicillin G, 16 μg/ml of LFC alone or in combination for 4-h at 37° C. with agitation at 150 rpm. Bacteria cell morphology was evaluated by transmission electron microscopy after fixation and ferritin labelling method as previously described.

Assay [2] concerns β-lactamase activity of S. aureus SHY97-4320. The experiment in a line: β-lactamase activity, nitrocefin assay, bovine LF/LFC. The class given is cell-based. To be noted: 8-μg/ml penicillin G alone. As to the method: The effects of sub-MICs of LF (1 mg/ml), LFC (32 and 64 μg/ml) alone or in combination with ampicillin (4μg/ml) or penicillin G (8 μg/ml) were evaluated on the β-lactamase activity of S. aureus strains SHY97-4320 and PC-1. The chromogenic cephalosporin nitrocefin (Becton Dickinson, Microbiology, Cockeysville, Md.) was used in a quantitative spectrophotometric assay. Bacterial cells were first exposed during 4 and 22-h to drugs in broth. The number of bacteria (cfu/ml) were determined and cells aliquots were centrifuged at each point in time. The pellets were suspended in 10 mM HEPES buffer (pH 7.4) to an OD415 nm of 1 for PC-1 and 2 for SHY97-4320. Nitrocefin (100 μM) was added to 100 μl of cells in a final volume of 1 ml. Hydrolysis was measured at 486 nm on spectrophotometer. β-lactamase activity was expressed as ΔO.D.486 nm/min and corrected for bacterial OD.

Regarding `CC1(C)S[C@@H]2[C@H](NC(=O)Cc3ccccc3)C(=O)N2[C@H]1C(=O)O` [penicillin G, Penicillin G], the β-lactamase activity entry is given as “present” in assay [1] and “a large increase in β-lactamase activity” in assay [2]. The “proteins of approximately 59, 42 and 27 kDa in protein profile” value in the assay with S. aureus SHY97-4320 is “can be seen”. In addition, in the assay with S. aureus PC-1, the cell morphology entry is reported as “no effects on morphology”.
